From US6919348B2, “Therapeutic 1,2,3,6-tetrahydropyrimidine-2-one compositions and methods therewith” (priority 2002, dated 2005)
Read-outs that look alike come from different tables or passages of the source.

Key:
Solubility in solvents = format: physicochemical
Procedure: (§1) Icilin is a lemon yellow crystalline powder with a molecular weight of 311 Daltons and a melting point of 229 to 231° C. […] Thus, icilin would be considered as a lipophilic, hydrophobic compound that is not easily miscible with aqueous systems. Analogs of icilin, for example, with acetyoxy, ethyl, fluoro, or trifluoromethyl substitutions, retain similar chemical and physical properties and are included within the scope of this invention.
Menthol, by contrast, is a white crystal with a molecular weight of 156 Daltons and a melting point of 41 to 43° C., a temperature slightly above body temperature. […] Some analogs of menthol, e.g. (+)-neomenthol are colorless liquids at room temperature.

[1] = Stability at room temperature; format: physicochemical
Procedure: as §1

[2] = test system: surfaces of the human body; assay: Irritation upon contact with the surfaces of the human body; format: in vivo
[3] = test system: anorectal area of subject with inflamed hemorrhoids; assay: Example 2: anorectal administration in inflamed hemorrhoids; format: in vivo, human; conditions: icilin 20 mg/ml in propylene glycol admixed with saline laxative, 2 ml emulsion instilled into rectum
Procedure: A subject with inflamed hemorrhoids self-administered a commercial suppository, shaped as a 1.5-inch bullet, containing 25 mg of hydrocortisone. The suppository was coated with 5 mg of icilin and 5 mg of WS-23, a menthol analog. Cooling sensations were felt within 5 minutes in the anorectal area extending to the scrotum. Relief of discomfort and itch in the anorectal area lasted for longer than 3 hours. In a similar experiment, icilin, dissolved 20 mg/ml in propylene glycol was admixed with a isotonic sodium chloride solution laxative (containing monobasic sodium phosphate and dibasic sodium phosphate salts), and 2 ml of the emulsion was instilled into the rectum. Again, cooling sensations with relief of itch and discomfort were obtained for 2 hours.

abrasion on finger = assay: Example 3: application to abrasion wound on finger; format: in vivo, human; conditions: applied directly to abrasion; icilin 0.8 mg
Procedure: A subject with an abrasion on their finger (caused by friction) of about 1 square centimeter received 0.8 mg of icilin applied directly to the wound with a swab stick.

lower eyelid = assay: Example 4: application to lower eyelid; format: in vivo, human; conditions: for duration of cooling/refreshing effect: icilin 10 mg/ml solution
Procedure: A small quantity of a 10 mg/ml solution of icilin dissolved in propylene glycol was applied with a cotton swab stick to the lower eyelid of a subject. […] This effect lasted for about 45 minutes. […] The eyelids smarted from the harsh irritant actions of menthol. The individual blinked and the eyes were momentarily closed with a small degree of lachrymation. But, after about 1 minute, this discomfort dissipated and the cooling sensations of menthol were felt on the eyelid. The sensations were refreshing and lasted for about 15 minutes and accompanied by a minty odor.
By contrast, menthol cannot be used in eye drops because of its irritant actions.

[4] = test system: nasal cavity of subject with hay fever; assay: Examples 5 and 6: nasal administration in subject with hay fever; format: in vivo, human; conditions: for effect on nasal discharge, urge to sneeze, itchy eyelids: inhaled via the nose, hay fever subject
Procedure: A subject, suffering from hay fever (in this case, seasonal allergy to grass pollen) stopped taking antihistamines for 24 hours and inhaled via the nose 0.5 mg or 2 mg (on 2 separate occasions) of icilin in powder form.
Icilin, dissolved in propylene glycol, was added to a commercial preparation of an anti-allergy nasal spray containing fluticasone to attain a concentration of about 10 mg icilin/ml solution.

[5] = test system: mouth, throat and upper alimentary tract; assay: Example 7: chewing gum; format: in vivo, human
Procedure: Two mg of icilin was spread between two wafers of a fruit-flavored chewing gum and chewed for 5 minutes by a subject. […] But after 12 minutes general sensations of coolness were felt in the thoracic internal structures behind the sternum, in the epigastric area. These cooling effects lasted for about 45 minutes. By contrast, the chewing of mentholated gum or mentholated candy, produced after an initial harsh taste, strong cooling of the mouth and throat that lasted only about 10 minutes.
This experiment illustrates important pharmacokinetic differences between icilin and menthol. The effects of mentholated gum are immediate and localized to the mouth and throat. […] Further protection of the icilin by standard encapsulation technology will allow it to reach the distal portions of the gastrointestinal tract such as the lower ileum and colon where it may exert its pharmacological effects as a cold receptor agonist.

[6] = test system: shaking behavior in the rat; conditions: cited from earlier work
rats = conditions: cited from earlier work
TRP(M8) receptor = TRP(M8) receptor (Rattus norvegicus, UniProt Q8R455); conditions: cloned and transfected TRP(M8) receptor; McKemy et al. 2002; cited from earlier work
receptors for cold = conditions: cited from earlier work
skin or mucous membranes = assay: Duration of cooling effect after application to skin or mucous membranes; format: in vivo, human; conditions: applied to the skin or mucous membranes, regardless of dose
Source text: The physico-chemical differences between icilin and menthol confer unique advantages to icilin for manipulating sensory nerve discharges in certain defined clinical situations, as described hereinafter. The first advantage is the site of delivery: menthol cannot be delivered to the eyelids and its environs, the nasal membranes, or the mucous membranes of the anogenital region at high concentrations because it is pungent, stings and irritates. Icilin, on the other hand, can be administered to these sites because it is non-irritating. A second major advantage of icilin is its duration of action. Icilin's actions can be localized at its site of application for a prolonged period because of its lipophilic characteristics and because it can be administered as a powder or dispersed (either in solid form or solubilized) as an emulsion. By contrast, menthol is volatile and rapidly re-distributes and metabolizes in the body so its duration of action is relatively short. For example, icilin applied to nasal membranes can produce refreshing sensations for up to 3 hours.
In practicing the present invention, the topical administration of icilin relieves itching, especially when given in combination with a menthol analog. […]

TRP(M8) receptor, sequence (Q8R455 whole entry): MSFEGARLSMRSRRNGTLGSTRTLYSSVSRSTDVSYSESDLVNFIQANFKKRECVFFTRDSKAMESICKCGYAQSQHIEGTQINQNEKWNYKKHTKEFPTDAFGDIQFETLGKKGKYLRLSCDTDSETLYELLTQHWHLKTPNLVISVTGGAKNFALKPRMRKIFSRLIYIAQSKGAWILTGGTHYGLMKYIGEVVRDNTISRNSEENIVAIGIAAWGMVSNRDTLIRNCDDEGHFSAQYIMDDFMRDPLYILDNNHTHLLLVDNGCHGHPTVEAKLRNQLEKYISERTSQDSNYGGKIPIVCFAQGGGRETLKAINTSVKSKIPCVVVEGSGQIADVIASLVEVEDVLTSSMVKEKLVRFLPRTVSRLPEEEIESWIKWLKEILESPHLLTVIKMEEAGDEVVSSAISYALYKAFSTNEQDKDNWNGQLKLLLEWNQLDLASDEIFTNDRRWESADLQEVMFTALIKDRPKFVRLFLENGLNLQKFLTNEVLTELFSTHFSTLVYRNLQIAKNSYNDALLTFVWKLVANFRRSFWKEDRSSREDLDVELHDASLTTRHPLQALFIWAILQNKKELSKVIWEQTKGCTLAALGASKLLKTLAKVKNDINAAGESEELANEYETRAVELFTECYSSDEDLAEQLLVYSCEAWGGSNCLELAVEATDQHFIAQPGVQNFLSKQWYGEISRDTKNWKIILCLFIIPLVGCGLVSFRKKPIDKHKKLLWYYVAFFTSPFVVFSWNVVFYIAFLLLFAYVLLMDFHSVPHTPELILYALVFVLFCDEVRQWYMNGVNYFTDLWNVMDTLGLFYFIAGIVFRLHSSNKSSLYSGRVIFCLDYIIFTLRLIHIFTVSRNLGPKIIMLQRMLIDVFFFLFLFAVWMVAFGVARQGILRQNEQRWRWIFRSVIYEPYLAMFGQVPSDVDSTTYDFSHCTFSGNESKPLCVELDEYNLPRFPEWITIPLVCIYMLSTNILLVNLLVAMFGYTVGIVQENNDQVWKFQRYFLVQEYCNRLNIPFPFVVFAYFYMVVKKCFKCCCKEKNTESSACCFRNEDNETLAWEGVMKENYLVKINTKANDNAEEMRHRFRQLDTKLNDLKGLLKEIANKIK

## O=C1NC(c2cccc([N+](=O)[O-])c2)=CCN1c1ccccc1O [icilin, 1-[2-hydroxy]-4-[3-nitrophenyl]-1,2,3,6-tetrahydropyridimine-2-one]
Solubility in solvents
  solubility in ethanol and acetone: slightly soluble
  solubility in water: virtually insoluble
Solubility in solvents; dimethylsulfoxide, nitromethane, dimethylacetamide and propanediols
  solubility in organic solvents: readily soluble
[1]
  stability: stable at room temperature
[2]; powder
  irritation upon contact with body surfaces: non-irritating
[3]
  duration of cooling sensations with relief of itch and discomfort: 2 h
Abrasion on finger
  effect on pain and coldness at wound site: pain was lessened
Lower eyelid
  irritation of the eyelid: without acute irritation
Lower eyelid; 10 mg/ml in propylene glycol
  onset of prickling sensations of cold: ≤ 10 min
Lower eyelid; menthol crystals
  duration of cooling/refreshing effect: about 45 minutes
[4]; 0.5 mg or 2 mg powder inhaled via the nose
  duration of sense of free and unobstructed airflow / cold sensations: about 3 hours
[4]; applied to nasal membranes
  duration of refreshing sensations: up to 3 hours
[4]
  effect on nasal discharge, urge to sneeze, itchy eyelids: curtailed and terminated
[5]; 2 mg in chewing gum
  coolness in the mouth or throat: No sensations of coolness
[5]; 2 mg in chewing gum chewed 5 minutes, behind the sternum, epigastric area
  onset of general sensations of coolness: 12 min
[5]; 2 mg in chewing gum, thoracic/epigastric area
  duration of cooling effects: about 45 minutes
[6]; rat, molar basis
  potency relative to menthol on shaking behavior: 400 times
[6]; rats and monkeys, accompanied by hyperthermia, hyperactivity and ptosis
  behavioral syndrome elicited: wet dog shake behavior
rats
  toxicity relative to menthol, by oral median lethal dose: less toxic than menthol
TRP(M8) receptor
  potency relative to menthol in eliciting ion channel current changes: about 200 times
Receptors for cold; 0.1 mg applied to the dorsum of the tongue
  sensation elicited: prickling sensations of cold
Receptors for cold; ingestion of 6 mg, on one occasion out of three
  sensation elicited: sensations of coolness on the cheeks and on the inner surfaces of the arms and legs

## CC1CCC(C(C)C)C(O)C1 (stereo not drawn) [menthol, reference compound]
Solubility in solvents
  solubility in ethanol: soluble
  solubility in water: slightly soluble
[2]; high concentrations, eyes
  irritation: irritating to the eyes
Skin or mucous membranes
  duration of cooling sensations: 15 to 30 min
Abrasion on finger
  effect on pain and coldness at wound site: did not elicit sensations of coldness or pain reduction
Lower eyelid
  irritation of the eyelid: sharp discomfort
Lower eyelid; menthol crystals
  duration of cooling/refreshing effect: about 15 minutes
  time until discomfort dissipated: about 1 minute
[4]; 0.8 mg crystals inhaled
  duration of cooling effect: 25 to 30 min
[4]; inhalation of crystals
  irritation on nasal inhalation: initial burning sensation
[4]
  effect on nasal discharge, urge to sneeze, itchy eyelids: No overt beneficial effects
